Measurements reported in patent US6737383B1, “Herbicidal oxadiazolidines” (priority 1999, dated 2004).

Columns and labels:
Details in all cases: Preemergence
giant foxtail = assay: Test B pre/postemergence giant foxtail; type: in vivo, Setaria faberii
Outline: (§1)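 Herbicidal effect was estimated by eye on a ten-point control scale after plants spent twelve to sixteen days in a greenhouse following soil or foliar treatment. Foliar sprays targeted plants at one to four leaves; all doses were formulated in a non-phytotoxic solvent with surfactant.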

velvetleaf = assay: Test B pre/postemergence velvetleaf; type: in vivo, Abutilon theophrasti
Outline: as §1

rape = assay: Test B pre/postemergence rape; type: in vivo, Brassica napus
Outline: as §1

morningglory = assay: Test B pre/postemergence morningglory; type: in vivo, Ipomoea hederacea
Outline: as §1

pigweed = assay: Test B pre/postemergence pigweed; type: in vivo, Amaranthus retroflexus
Outline: as §1

wheat = assay: Test B pre/postemergence wheat; type: in vivo, Triticum aestivum
Outline: as §1

bedstraw = assay: Test B pre/postemergence bedstraw; type: in vivo, Galium aparine
Outline: as §1

wild oat = assay: Test B pre/postemergence wild oat; type: in vivo, Avena fatua
Outline: as §1

purple nutsedge = assay: Test B pre/postemergence purple nutsedge; type: in vivo, Cyperus rotundus
Outline: as §1

cocklebur = assay: Test B pre/postemergence cocklebur; type: in vivo, Xanthium strumarium
Outline: as §1

blackgrass = assay: Test B pre/postemergence blackgrass; type: in vivo, Alopecurus myosuroides
Outline: as §1

surinam grass = assay: Test B pre/postemergence surinam grass; type: in vivo, Brachiaria decumbens
Outline: as §1

sugar beet = assay: Test B pre/postemergence sugar beet; type: in vivo, Beta vulgaris
Outline: as §1

soybean = assay: Test B pre/postemergence soybean; type: in vivo, Glycine max
Outline: as §1

crabgrass = assay: Test B pre/postemergence crabgrass; type: in vivo, Digitaria sanguinalis
Outline: as §1

corn = assay: Test B pre/postemergence corn; type: in vivo, Zea mays
Outline: as §1

[1] = Rate 125 g/ha, scale of 0 to 10 where 0 is no effect and 10 is complete control
[2] = Rate 250 g/ha, scale 0 (no effect) to 10 (complete control)
[3] = Rate 500 g/ha, scale 0 to 10 (0 no effect, 10 complete control)

## COC(CCl)n1c(=O)on(C(=O)N(c2ccc(F)cc2F)C(C)C)c1=O (stereo not shown) [Compound 737]
Giant foxtail; [1]
  Plant response rating, Giant foxtail: 10
Giant foxtail; [2]
  Giant foxtail plant response rating: 10
Giant foxtail; Rate 62 g/ha, scale 0 to 10
  Giant foxtail plant response rating: 9
Giant foxtail; [3]
  Giant foxtail plant response rating: 10
velvetleaf; [1]
  Plant response rating, Velvetleaf: 0
velvetleaf; [2]
  Velvetleaf plant response rating: 4
velvetleaf; Rate 62 g/ha, scale 0 to 10
  Velvetleaf plant response rating: 0
velvetleaf; [3]
  Velvetleaf plant response rating: 5
rape; [1]
  Plant response rating, Rape: 0
rape; [2]
  Rape plant response rating: 5
rape; Rate 62 g/ha, scale 0 to 10
  Rape plant response rating: 0
rape; [3]
  Rape plant response rating: 6
morningglory; [1]
  Plant response rating, Morningglory: 2
morningglory; [2]
  Morningglory plant response rating: 2
morningglory; Rate 62 g/ha, scale 0 to 10
  Morningglory plant response rating: 1
morningglory; [3]
  Morningglory plant response rating: 3
pigweed; [1]
  Plant response rating, Redroot pigweed: 3
pigweed; [2]
  Redroot pigweed plant response rating: 6
pigweed; Rate 62 g/ha, scale 0 to 10
  Redroot pigweed plant response rating: 2
pigweed; [3]
  Redroot pigweed plant response rating: 8
wheat; [1]
  Plant response rating, Wheat: 0
wheat; [2]
  Wheat plant response rating: 2
wheat; Rate 62 g/ha, scale 0 to 10
  Wheat plant response rating: 0
wheat; [3]
  Wheat plant response rating: 2
bedstraw; [1]
  Plant response rating, Bedstraw: 0
bedstraw; [2]
  Bedstraw plant response rating: 0
bedstraw; Rate 62 g/ha, scale 0 to 10
  Bedstraw plant response rating: 0
bedstraw; [3]
  Bedstraw plant response rating: 0
Wild oat; [1]
  Plant response rating, Wild oats: 6
Wild oat; [2]
  Wild oats plant response rating: 8
Wild oat; Rate 62 g/ha, scale 0 to 10
  Wild oats plant response rating: 5
Wild oat; [3]
  Wild oats plant response rating: 9
Purple nutsedge; [1]
  Plant response rating, Nutsedge: 0
Purple nutsedge; [2]
  Nutsedge plant response rating: 0
Purple nutsedge; Rate 62 g/ha, scale 0 to 10
  Nutsedge plant response rating: 0
Purple nutsedge; [3]
  Nutsedge plant response rating: 0
cocklebur; [1]
  Plant response rating, Cocklebur: 0
cocklebur; [2]
  Cocklebur plant response rating: 0
cocklebur; Rate 62 g/ha, scale 0 to 10
  Cocklebur plant response rating: 0
cocklebur; [3]
  Cocklebur plant response rating: 0
blackgrass; [1]
  Plant response rating, Blackgrass: 9
blackgrass; [2]
  Blackgrass plant response rating: 9
blackgrass; Rate 62 g/ha, scale 0 to 10
  Blackgrass plant response rating: 6
blackgrass; [3]
  Blackgrass plant response rating: 10
Surinam grass; Rate 62 g/ha, scale of 0 to 10 where 0 is no effect and 10 is complete control
  B. signalgrass plant response rating: 4
Surinam grass; [1]
  Plant response rating, B. signalgrass: 4
Surinam grass; [2]
  B. signalgrass plant response rating: 8
Surinam grass; [3]
  B. signalgrass plant response rating: 9
Sugar beet; [1]
  Plant response rating, Sugarbeets: 5
Sugar beet; [2]
  Sugarbeets plant response rating: 6
Sugar beet; Rate 62 g/ha, scale 0 to 10
  Sugarbeets plant response rating: 1
Sugar beet; [3]
  Sugarbeets plant response rating: 6
soybean; [1]
  Plant response rating, Soybean: 0
soybean; [2]
  Soybean plant response rating: 0
soybean; Rate 62 g/ha, scale 0 to 10
  Soybean plant response rating: 0
soybean; [3]
  Soybean plant response rating: 0
crabgrass; [1]
  Plant response rating, Crabgrass: 9
crabgrass; [2]
  Crabgrass plant response rating: 10
crabgrass; Rate 62 g/ha, scale 0 to 10
  Crabgrass plant response rating: 8
crabgrass; [3]
  Crabgrass plant response rating: 10
corn; [1]
  Plant response rating, Corn: 2
corn; [2]
  Corn plant response rating: 3
corn; Rate 62 g/ha, scale 0 to 10
  Corn plant response rating: 0
corn; [3]
  Corn plant response rating: 6
